Data on 24 compounds can be found in US6410558B1, “Fungicides for the control of take-all disease of plants” (Monsanto Technology LLC, priority 1991, dated 2002).

SMILES strings stand for the structures.

This experiment deals with Gaeumannomyces graminis var. tritici (Ggt). Description: In vitro Assay: mycelial growth of Ggt on minimal media agar plates containing test compound. To be noted: Gaeumannomyces graminis, dark, 19-20° C., 4 to 5 days, diameter of mycelial growth; for inhibition at 0.1 ppm: 0.1 ppm in minimal media agar, read-out: In vitro (ppm) 0.1, Percent Inhibition; for inhibition at 1 ppm: 1 ppm in minimal media agar, read-out: In vitro (ppm) 1, Percent Inhibition; for inhibition at 10 ppm: 10 ppm in minimal media agar, read-out: In vitro (ppm) 10, Percent Inhibition. It is filed as cell-based. The gist of the method:
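Compounds added from acetone stock into minimal (Czapek Dox) agar; plates inoculated with three 4-mm Ggt plugs, incubated in dark at 19-20° C for 4 to 5 days. Colony diameter measured; Percent Inhibition = [1-((treated mm −4)/(control mm −4))]×100.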

Usually inhibition stands for the percentage by which the read-out fell short of the control. As to `CCN(CC)C(=O)c1c([Si](C)(C)C)coc1[Si](C)(C)C` [Example 250, N,N-Diethyl-2,4-bis(trimethylsilyl)-3-furancarboxamide], the inhibition at 0.1 ppm is less than 0%, the inhibition at 1 ppm is less than 0% and the inhibition at 10 ppm came out at 41%.

For the compound `CCNC(=O)c1oc([Si](C)(C)C)cc1[Si](C)(C)C` [Example 251, N-Ethyl-3,5-bis(trimethylsilyl)-2-furancarboxamide], the inhibition at 0.1 ppm is 3%, the inhibition at 1 ppm was 36% and the inhibition at 10 ppm worked out at 97%.

For the compound `CCNC(=O)c1occc1[Si](C)(C)C` [Example 252, N-Ethyl-3-(trimethylsilyl)-2-furancarboxamide], the inhibition at 0.1 ppm worked out at 5%, the inhibition at 1 ppm is 28% and the inhibition at 10 ppm was 100%.

On to `CCNC(=O)c1cccn1C[Si](C)(C)C` [Example 253, N-Ethyl-1-[(trimethylsilyl)methyl]-1H-pyrrole-2-carboxamide], for which the inhibition at 0.1 ppm is less than 0%, the inhibition at 1 ppm is 14% and the inhibition at 10 ppm turned out to be 62%.

For the compound `CCN(CC)C(=O)c1sccc1[Si](C)(C)C` [Example 255, N,N-Diethyl-3-(trimethylsilyl)-2-thiophenecarboxamide], the inhibition at 0.1 ppm was less than 0%, the inhibition at 1 ppm was less than 0% and the inhibition at 10 ppm was 73%.

As to `CCNC(=O)c1sc(C)cc1[Si](C)(C)C` [Example 256, N-Ethyl-5-methyl-3-(trimethylsilyl)-2-thiophenecarboxamide], the inhibition at 0.1 ppm was less than 0%, the inhibition at 1 ppm was less than 0% and the inhibition at 10 ppm is 100%.

For the compound `CCNC(=O)c1sc(I)cc1[Si](C)(C)C` [Example 257, N-Ethyl-5-iodo-3-(trimethylsilyl)-2-thiophenecarboxamide], the inhibition at 0.1 ppm is 3%, the inhibition at 1 ppm stood at 23% and the inhibition at 10 ppm worked out at 100%.

With `CCNC(=O)c1sc(C=O)cc1[Si](C)(C)C` [Example 258, N-Ethyl-5-formyl-3-(trimethylsilyl)-2-thiophenecarboxamide], the inhibition at 0.1 ppm worked out at 19%, the inhibition at 1 ppm was 19% and the inhibition at 10 ppm is 42%.

As for `CCNC(=O)c1sncc1[Si](C)(C)C` [Example 259, N-Ethyl-4-(trimethylsilyl)-5-isothiazolecarboxamide], the inhibition at 0.1 ppm is 19%, the inhibition at 1 ppm amounted to 11% and the inhibition at 10 ppm came out at 80%.

As to `CCNC(=O)c1sc([S+](C)[O-])cc1[Si](C)(C)C` (stereo not drawn) [Example 260, N-Ethyl-5-(methylsulfinyl)-3-(trimethylsilyl)-2-thiophenecarboxamide], the inhibition at 0.1 ppm was less than 0%, the inhibition at 1 ppm is less than 0% and the inhibition at 10 ppm stood at 77%.

With `CCNC(=O)c1sc(SC)cc1[Si](C)(C)C` [Example 261, N-Ethyl-5-(methylthio)-3-(trimethylsilyl)-2-thiophenecarboxamide], the inhibition at 0.1 ppm was found to be 14%, the inhibition at 1 ppm stood at 25% and the inhibition at 10 ppm is 78%.

For `C=CCNC(=O)c1sc(Cl)cc1[Si](C)(C)C` [Example 262, 5-Chloro-N-(2-propenyl)-3-(trimethylsilyl)-2-thiophenecarboxamide], the inhibition at 0.1 ppm came out at 13%, the inhibition at 1 ppm worked out at 70% and the inhibition at 10 ppm came out at 100%.

For `C[Si](C)(C)c1cc(Cl)sc1C(=O)NCCO` [Example 263, 5-Chloro-N-(2-hydroxyethyl)-3-trimethylsilyl-2-thiophenecarboxamide], the inhibition at 0.1 ppm came out at 7%, the inhibition at 1 ppm is less than 0% and the inhibition at 10 ppm is 50%.

With `C[Si](C)(C)c1cc(Cl)sc1C(=O)NCCCl` [Example 264, 5-Chloro-N-(2-chloroethyl)-3-(trimethylsilyl)-2-thiophenecarboxamide], the inhibition at 0.1 ppm is 2%, the inhibition at 1 ppm came to 88% and the inhibition at 10 ppm came to 100%.

Consider `C[Si](C)(C)c1cc(Cl)sc1C(=O)NCCOS(C)(=O)=O` [Example 265, 5-Chloro-N-[2[(methylsulfonyl)oxy]ethyl]-3-(trimethylsilyl)-2-thiophenecarboxamide], for which the inhibition at 0.1 ppm turned out to be 5%, the inhibition at 1 ppm was found to be 14% and the inhibition at 10 ppm turned out to be 100%.

Turning to `CCNC(=O)c1c(Br)csc1[Si](C)(C)C` [Example 267, 4-Bromo-N-ethyl-2-(trimethylsilyl)-3-thiophenecarboxamide], the inhibition at 0.1 ppm stood at 18%, the inhibition at 1 ppm was found to be 64% and the inhibition at 10 ppm stood at 61%.

Regarding `CCNC(=O)c1cc(Br)sc1[Si](C)(C)C` [Example 268, 5-Bromo-N-ethyl-2-(trimethylsilyl)-3-thiophenecarboxamide], the inhibition at 0.1 ppm was less than 0%, the inhibition at 1 ppm is less than 0% and the inhibition at 10 ppm amounted to 100%.

With `C=CCN(SC)C(=O)c1sc(Cl)cc1[Si](C)(C)C` [Example 273, 5-Chloro-N-(methylthio)-N-2-propenyl-3-(trimethylsilyl)-2-thiophenecarboxamide], the inhibition at 0.1 ppm came out at 35%, the inhibition at 1 ppm worked out at 48% and the inhibition at 10 ppm came to 100%.

For the compound `CCNC(=O)c1sc2c(c1[Si](C)(C)C)CCCC2` [Example 274, N-Ethyl-3-(trimethylsilyl)-4,5,6,7-tetrahydrobenzo[B]thiophene-2-carboxamide], the inhibition at 0.1 ppm was less than 0%, the inhibition at 1 ppm turned out to be 10% and the inhibition at 10 ppm is 67%.

Turning to `CCNC(=O)c1cc(NC)ccc1[Si](C)(C)C` [Example 275, N-Ethyl-5-(methylamino)-2-(trimethylsilyl)benzamide], the inhibition at 0.1 ppm worked out at 22%, the inhibition at 1 ppm was 81% and the inhibition at 10 ppm amounted to 94%.

As for `CCNC(=O)c1c([Si](C)(C)C)ccc(C#C[Si](C)(C)C)c1Cl` [Example 276, 2-Chloro-N-ethyl-6-(trimethylsilyl)-3-[(trimethylsilyl)ethynyl]benzamide], the inhibition at 0.1 ppm was less than 0%, the inhibition at 1 ppm came out at 63% and the inhibition at 10 ppm is 84%.

Turning to `C=Cc1ccc([Si](C)(C)C)c(C(=O)NCC)c1Cl` [Example 277, 2-Chloro-3-ethenyl-N-ethyl-6-(trimethylsilyl)benzamide], the inhibition at 0.1 ppm was 69%, the inhibition at 1 ppm was 81% and the inhibition at 10 ppm turned out to be 94%.

As to `CCOP(=O)(OCC)N(CC)C(=O)c1c(Cl)cccc1[Si](C)(C)C` [Example 278, [2-Chloro-6-(trimethylsilyl)benzoyl]ethylphosphoramidic acid, diethyl ester], the inhibition at 0.1 ppm was less than 0%, the inhibition at 1 ppm came to 50% and the inhibition at 10 ppm turned out to be 75%.

`CCN(CSC)C(=O)c1c(Cl)cccc1[Si](C)(C)C` [Example 279, 2-Chloro-N-ethyl-N-[(methylthio)methyl]-6-(trimethylsilyl)benzamide]: the inhibition at 0.1 ppm is less than 0%, the inhibition at 1 ppm was less than 0% and the inhibition at 10 ppm was 47%.
